# Measurements from patent publication US8772287B2, “Pyrimidinyl and 1,3,5-triazinyl benzimidazole sulfonamides and their use in cancer therapy” (VetDC, Inc., priority 2009, dated 2014).
# Where a name gives a salt, the structure may show the parent alone. Read-outs that look alike come from different tables or passages of the source.
# Tests used:
# NZOV9 = assay: Cellular growth inhibition, NZOV9 (3H-thymidine incorporation); type: cell-based, human
# Method: (§1) The compounds were evaluated against two early passage human cell lines NZB5 and NZOV9 (Marshall et al., Oncol. Res. 2004, 14, 297). The cells were grown in ITS medium (α-modified minimal essential medium supplemented insulin, transferrin, selenite, and 5% fetal bovine serum) and grown on 96-well tissue culture plates under an atmosphere of 5% O2, 5% CO2, and 90% N2. Individual wells contained 500-1,000 cells (depending on the growth rate) in a volume of 150 μL. Compounds were added at 10-fold concentration steps to a maximum of 20 μM and plates were incubated for five days, with ^3H-thymidine being added over the last 6 hrs. Cells were harvested and incorporated radioactivity measured. Duplicate samples were analyzed for each compound dose with multiple control samples.
# NZB5 = assay: Cellular growth inhibition, NZB5 (3H-thymidine incorporation); type: cell-based, human
# Method: as §1
# [1] = Homo sapiens, NZOV9, read-out: Cell IC50 NZOV9
# [2] = Homo sapiens, NZB5, read-out: Cell IC50 NZB5
# [3] = read-out: Cell IC50 NZOV9, five days incubation, 3H-thymidine over the last 6 hrs
# [4] = read-out: Cell IC50 NZB5, five days incubation, 3H-thymidine over the last 6 hrs
# [5] = Homo sapiens, NZOV9, five days incubation, 3H-thymidine over the last 6 hrs, read-out: Cell IC50 NZOV9
# [6] = Homo sapiens, NZB5, five days incubation, 3H-thymidine over the last 6 hrs, read-out: Cell IC50 NZB5
smiles,measurement,setting,value
COc1cccc2c1nc(C(F)F)n2-c1nc(N2CCOCC2)nc(N(C)C2CCCN(S(C)(=O)=O)C2)n1 (centres unmarked),melting point,,201 to 203 °C
"COc1cccc2c1nc(C(F)F)n2-c1nc(OC2CCN(S(=O)(=O)CCN3CCOCC3)CC2)nc(N2CCOCC2)n1 (as salt: hydrochloride) [Example 51, 2-(difluoromethyl)-4-methoxy-1-{4-(4-morpholinyl)-6-[(1-{[2-(4-morpholinyl)ethyl]sulfonyl}-4-piperidinyl)oxy]-1,3,5-triazin-2-yl}-1H-benzimidazole]",melting point,,255 to 259 °C
"COc1cccc2c1nc(C(F)F)n2-c1nc(N2CCOCC2)nc(N(CCCN(C)C)C2CCN(S(=O)(=O)CCl)CC2)n1 (as salt: hydrochloride) [Example 59, N^1-{1-[(chloromethyl)sulfonyl]-4-piperidinyl}-N^1-[4-[2-(difluoromethyl)-4-methoxy-1H-benzimidazol-1-yl]-6-(4-morpholinyl)-1,3,5-triazin-2-yl]-N^3,N^3-dimethyl-1,3-propanediamine]",melting point,,222 to 225 °C
"COc1cccc2c1nc(C(F)F)n2-c1nc(N2CCOCC2)nc(N2CCC(N(CCCN(C)C)S(=O)(=O)CCl)CC2)n1 (as salt: hydrochloride) [Example 60, chloro-N-{1-[4-[2-(difluoromethyl)-4-methoxy-1H-benzimidazol-1-yl]-6-(4-morpholinyl)-1,3,5-triazin-2-yl]-4-piperidinyl}-N-[3-(dimethylamino)propyl]methanesulfonamide]",melting point,,260 to 263 °C
"CN(C)CCS(=O)(=O)N1CCN(c2nc(N3CCOCC3)nc(-n3c(C(F)F)nc4ccccc43)n2)CC1 (as salt: hydrochloride) [Example 83, N-[2-({4-[4-[2-(difluoromethyl)-1H-benzimidazol-1-yl]-6-(4-morpholinyl)-1,3,5-triazin-2-yl]-1-piperazinyl}sulfonyl)ethyl]-N,N-dimethylamine]",melting point,,244 to 246 °C
"COc1cccc2c1nc(C(F)F)n2-c1nc(-c2ccc(NS(=O)(=O)CCN(C)C)cc2)nc(N2CCOCC2)n1 (as salt: methanesulfonate) [Example 74, N-{4-[4-[2-(difluoromethyl)-4-methoxy-1H-benzimidazol-1-yl]-6-(4-morpholinyl)-1,3,5-triazin-2-yl]phenyl}-2-(dimethylamino)ethanesulfonamide]",melting point,,218 to 220 °C
"COc1cccc2c1nc(C(F)F)n2-c1nc(-c2ccc(N(C)S(=O)(=O)CCN(C)C)cc2)nc(N2CCOCC2)n1 (as salt: methanesulfonate) [Example 75, N-{4-[4-[2-(difluoromethyl)-4-methoxy-1H-benzimidazol-1-yl]-6-(4-morpholinyl)-1,3,5-triazin-2-yl]phenyl}-2-(dimethylamino)-N-methylethanesulfonamide]",melting point,,218 to 220 °C
"COc1cc(N)cc2c1nc(C(F)F)n2-c1nc(N2CCOCC2)nc(N2CCN(S(=O)(=O)CCN(C)C)CC2)n1 (as salt: methanesulfonate) [Example 84, N-[2-({4-[4-[6-amino-2-(difluoromethyl)-4-methoxy-1H-benzimidazol-1-yl]-6-(4-morpholinyl)-1,3,5-triazin-2-yl]-1-piperazinyl}sulfonyl)ethyl]-N,N-dimethylamine]",melting point,,238 °C (dec.)
"COc1cccc2c1nc(C(F)F)n2-c1nc(-c2ccc(S(=O)(=O)N3CCN(C)CC3)cc2)nc(N2CCOCC2)n1 (as salt: methanesulfonate) [Example 95, 2-(difluoromethyl)-4-methoxy-1-[4-{4-[(4-methyl-1-piperazinyl)sulfonyl]phenyl}-6-(4-morpholinyl)-1,3,5-triazin-2-yl]-1H-benzimidazole]",melting point,,289 to 292 °C
"COc1cccc2c1nc(C(F)F)n2-c1nc(N2CCOCC2)c2cnn(C3CCN(S(=O)(=O)CCN(C)C)CC3)c2n1 (as salt: methanesulfonate) [Example 99, N-[2-({4-[6-[2-(difluoromethyl)-4-methoxy-1H-benzimidazol-1-yl]-4-(4-morpholinyl)-1H-pyrazolo[3,4-d]pyrimidin-1-yl]-1-piperidinyl}sulfonyl)ethyl]-N,N-dimethylamine]",melting point,,191 to 193 °C
"COc1cccc2c1nc(C(F)F)n2-c1nc(N2CCOCC2)nc(N2CCC(NS(C)(=O)=O)C2)n1 (stereo in doubt) [Example 36, N-{(3R)-1-[4-[2-(difluoromethyl)-4-methoxy-1H-benzimidazol-1-yl]-6-(4-morpholinyl)-1,3,5-triazin-2-yl]pyrrolidinyl}methanesulfonamide]",IC50,NZOV9; [1],< 100 nM
same,melting point,,290 to 292 °C
same,IC50,NZB5; [2],100 to 1000 nM
"COc1cccc2c1nc(C(F)F)n2-c1nc(N2CCOCC2)nc(N2CCC(N(C)S(C)(=O)=O)C2)n1 (stereo in doubt) [Example 37, N-{(3R)-1-[4-[2-(difluoromethyl)-4-methoxy-1H-benzimidazol-1-yl]-6-(4-morpholinyl)-1,3,5-triazin-2-yl]pyrrolidinyl}-N-methylmethanesulfonamide]",IC50,NZOV9; [1],< 100 nM
same,melting point,,242 to 244 °C
same,IC50,NZB5; [2],100 to 1000 nM
"COc1cccc2c1nc(C(F)F)n2-c1nc(N2CCOCC2)nc(N2CCC(NS(C)(=O)=O)C2)n1 (stereo in doubt) [Example 38, N-{(3S)-1-[4-[2-(difluoromethyl)-4-methoxy-1H-benzimidazol-1-yl]-6-(4-morpholinyl)-1,3,5-triazin-2-yl]pyrrolidinyl}methanesulfonamide]",IC50,NZOV9; [1],< 100 nM
same,melting point,,290 to 292 °C
same,IC50,NZB5; [2],100 to 1000 nM
"COc1cccc2c1nc(C(F)F)n2-c1nc(N2CCOCC2)nc(N2CCC(N(C)S(C)(=O)=O)C2)n1 (stereo in doubt) [Example 39, N-{(3S)-1-[4-[2-(difluoromethyl)-4-methoxy-1H-benzimidazol-1-yl]-6-(4-morpholinyl)-1,3,5-triazin-2-yl]pyrrolidinyl}-N-methylmethanesulfonamide]",IC50,NZOV9; [1],< 100 nM
same,melting point,,244 to 247 °C
same,IC50,NZB5; [2],100 to 1000 nM
"COc1cccc2c1nc(C(F)F)n2-c1nc(N2CCOCC2)nc(N2CCCC(NS(C)(=O)=O)C2)n1 (stereo in doubt) [Example 44, N-{(3R)-1-[4-[2-(difluoromethyl)-4-methoxy-1H-benzimidazol-1-yl]-6-(4-morpholinyl)-1,3,5-triazin-2-yl]piperidinyl}methanesulfonamide]",IC50,NZOV9; [1],< 100 nM
same,melting point,,220 to 221 °C
same,IC50,NZB5; [2],100 to 1000 nM
"COc1cccc2c1nc(C(F)F)n2-c1nc(N2CCOCC2)nc(N2CCCC(NS(=O)(=O)CCl)C2)n1 (stereo in doubt) [Example 62, chloro-N-{(3S)-1-[4-[2-(difluoromethyl)-4-methoxy-1H-benzimidazol-1-yl]-6-(4-morpholinyl)-1,3,5-triazin-2-yl]-3-piperidinyl}methanesulfonamide]",melting point,,166 to 168 °C
"COc1cccc2c1nc(C(F)F)n2-c1nc(N[C@H]2CCN(S(C)(=O)=O)C2)nc(N2CCOCC2)n1 [Example 34, 4-[2-(difluoromethyl)-4-methoxy-1H-benzimidazol-1-yl]-N-[(3S)-1-(methylsulfonyl)pyrrolidinyl]-6-(4-morpholinyl)-1,3,5-triazin-2-amine]",IC50,NZOV9; [3],< 100 nM
same,IC50,NZB5; [4],100 to 1000 nM
"COc1cccc2c1nc(C(F)F)n2-c1nc(N2CCOCC2)nc(N(C)[C@H]2CCN(S(C)(=O)=O)C2)n1 [Example 35, 4-[2-(difluoromethyl)-4-methoxy-1H-benzimidazol-1-yl]-N-methyl-N-[(3S)-1-(methylsulfonyl)pyrrolidinyl]-6-(4-morpholinyl)-1,3,5-triazin-2-amine]",IC50,NZOV9; [3],< 100 nM
same,IC50,NZB5; [4],< 100 nM
"COc1cccc2c1nc(C(F)F)n2-c1nc(OC2CCN(S(=O)(=O)CCN3CCOCC3)CC2)nc(N2CCOCC2)n1 [Example 51, 2-(difluoromethyl)-4-methoxy-1-{4-(4-morpholinyl)-6-[(1-{[2-(4-morpholinyl)ethyl]sulfonyl}-4-piperidinyl)oxy]-1,3,5-triazin-2-yl}-1H-benzimidazole]",IC50,NZOV9; [5],100 to 1000 nM
same,IC50,NZB5; [6],> 1000 nM
"COc1cccc2c1nc(C(F)F)n2-c1nc(N[C@H]2CC[C@@H](NS(C)(=O)=O)CC2)nc(N2CCOCC2)n1 [Example 79, cis-N-(4-{[4-[2-(difluoromethyl)-4-methoxy-1H-benzimidazol-1-yl]-6-(4-morpholinyl)-1,3,5-triazin-2-yl]amino}cyclohexyl)methanesulfonamide]",IC50,NZOV9; [1],< 100 nM
same,IC50,NZB5; [2],100 to 1000 nM
"COc1cc(N)cc2c1nc(C(F)F)n2-c1nc(N2CCOCC2)nc(N2CCN(S(=O)(=O)CCN(C)C)CC2)n1 [Example 84, N-[2-({4-[4-[6-amino-2-(difluoromethyl)-4-methoxy-1H-benzimidazol-1-yl]-6-(4-morpholinyl)-1,3,5-triazin-2-yl]-1-piperazinyl}sulfonyl)ethyl]-N,N-dimethylamine]",IC50,NZOV9; [5],> 1000 nM
same,IC50,NZB5; [6],< 100 nM
"COc1cccc2c1nc(C(F)F)n2-c1nc(N2CCOCC2)c2cnn(C3CCN(S(=O)(=O)CCN(C)C)CC3)c2n1 [Example 99, N-[2-({4-[6-[2-(difluoromethyl)-4-methoxy-1H-benzimidazol-1-yl]-4-(4-morpholinyl)-1H-pyrazolo[3,4-d]pyrimidin-1-yl]-1-piperidinyl}sulfonyl)ethyl]-N,N-dimethylamine]",IC50,NZOV9; [5],< 100 nM
same,IC50,NZB5; [6],< 100 nM
